Test results from patent US11207320B2, “Compositions and methods for cancer expressing PDE3A or SLFN12” (The Broad Institute, Inc., priority 2015, dated 2021).

Test system: 766 cancer cell lines
Assay: Large-scale cell-line viability measurements (766 cancer cell lines, 72 h, AUC)
Type: cell-based, human
Protocol: Cell lines were treated for 72 hours with concentrations ranging from 66.4 μM-2 nM in 2-fold step dilutions.
To characterize cellular sensitivity to DNMDP further, 766 genomically characterized cancer cell lines were screened for DMNDP sensitivity at concentrations ranging from 66.4 μM to 2 nM in 2-fold dilution steps for 72 hours. From these cell lines, 22 cell lines were categorized as sensitive with a robust Z-score lower than −4, which represented multiple lineages including multiple melanoma cell lines, amongst others (Table 1).
The sensitivity of […] cancer cell lines (CCLs) was measured drawn from 23 different lineages to DNMDP. Each cell line was plated in its preferred media in white opaque 1536-plates at a density of 500 cells/well. After incubating overnight, DNMDP was added by acoustic transfer at 16 concentrations ranging from 66.4 μM-2 nM in 2-fold steps in duplicate (Labcyte Echo 555, Labcyte Inc., Sunnyvale, Calif.). After 72 hours treatment, cellular ATP levels were measured as a surrogate for viability (CELLTITERGLO®, Promega Corporation, Madison, Wis.) according to manufacturer's protocols using a ViewLux Microplate Imager (PerkinElmer, Waltham, Mass.) and normalized to background (media-only) and vehicle (DMSO)-treated control wells.
Concentration response curves were fit using nonlinear fits to 2- or 3-parameter sigmoid functions through all 16 concentrations with the low-concentration asymptote set to the DMSO-normalized value, and an optimal 8-point dose curve spanning the range of compound-sensitivity was identified. The area under the 8-point dose curve (AUC) was computed by numeric integration as a metric for sensitivity for further analysis. Similar sensitivity measurements have been obtained for a collection of 480 other compounds, enabling analyses that identify cell lines responding uniquely to DNMDP (see Broad Institute Cancer Therapeutics Response Portal, a dataset to identify comprehensively relationships between genetic and lineage features of human cancer cell lines and small-molecule sensitivities for complete list of compounds).

[1] = ALLSIL (HAEMATOPOIETIC AND LYMPHOID TISSUE), 72 hours
[2] = BICR6 (UPPER AERODIGESTIVE TRACT), 72 hours
[3] = DKMG (CENTRAL NERVOUS SYSTEM), 72 hours
[4] = DND41 (HAEMATOPOIETIC AND LYMPHOID TISSUE), 72 hours
[5] = EJM (HAEMATOPOIETIC AND LYMPHOID TISSUE), 72 hours
[6] = GB1 (CENTRAL NERVOUS SYSTEM), 72 hours
[7] = GOS3 (CENTRAL NERVOUS SYSTEM), 72 hours
[8] = GRANTA519 (HAEMATOPOIETIC AND LYMPHOID TISSUE), 72 hours
[9] = HEL9217 (HAEMATOPOIETIC AND LYMPHOID TISSUE), 72 hours
[10] = HUT78 (HAEMATOPOIETIC AND LYMPHOID TISSUE), 72 hours
[11] = KCL22 (HAEMATOPOIETIC AND LYMPHOID TISSUE), 72 hours
[12] = KMM1 (HAEMATOPOIETIC AND LYMPHOID TISSUE), 72 hours
[13] = KMS11 (HAEMATOPOIETIC AND LYMPHOID TISSUE), 72 hours
[14] = KMS12BM (HAEMATOPOIETIC AND LYMPHOID TISSUE), 72 hours
[15] = KMS20 (HAEMATOPOIETIC AND LYMPHOID TISSUE), 72 hours
[16] = KMS28BM (HAEMATOPOIETIC AND LYMPHOID TISSUE), 72 hours
[17] = KMS34 (HAEMATOPOIETIC AND LYMPHOID TISSUE), 72 hours
[18] = KO52 (HAEMATOPOIETIC AND LYMPHOID TISSUE), 72 hours
[19] = L540 (HAEMATOPOIETIC AND LYMPHOID TISSUE), 72 hours
[20] = L1236 (HAEMATOPOIETIC AND LYMPHOID TISSUE), 72 hours
[21] = LAMA84 (HAEMATOPOIETIC AND LYMPHOID TISSUE), 72 hours
[22] = LNCAPCLONEFGC (PROSTATE), 72 hours
[23] = LP1 (HAEMATOPOIETIC AND LYMPHOID TISSUE), 72 hours

CCN(CC)c1ccc(C2=NNC(=O)CC2C)cc1[N+](=O)[O-] (centres unmarked) [DNMDP, 6-(4-(diethylamino)-3-nitrophenyl)-5-methyl-4,5-dihydropyridazin-3(2H)-one]
number of cell lines categorized as sensitive (robust Z-score lower than −4) (766 cell lines, 66.4 μM to 2 nM, 72 hours): 22 cell lines
share of cell lines with nanomolar efficacy (766 genomically-characterized cancer cell lines): about 3%
DNMDP AUC (A549 (LUNG), 72 hours): 5.9509
Robust Z-score (A549 (LUNG), 72 hours): −0.7177
DNMDP AUC [1]: 5.8724
Robust Z-score [1]: −0.8001
DNMDP AUC [2]: 5.8837
Robust Z-score [2]: −0.7882
DNMDP AUC (BT549 (BREAST), 72 hours): 5.9226
Robust Z-score (BT549 (BREAST), 72 hours): −0.7474
DNMDP AUC (C32 (SKIN), 72 hours): 6.1786
Robust Z-score (C32 (SKIN), 72 hours): −0.4787
DNMDP AUC (CAL54 (KIDNEY), 72 hours): 6.1949
Robust Z-score (CAL54 (KIDNEY), 72 hours): −0.4616
DNMDP AUC (COLO668 (LUNG), 72 hours): 5.9969
Robust Z-score (COLO668 (LUNG), 72 hours): −0.6694
DNMDP AUC (COLO679 (SKIN), 72 hours): 5.9634
Robust Z-score (COLO679 (SKIN), 72 hours): −0.7046
DNMDP AUC (COLO800 (SKIN), 72 hours): 6.1272
Robust Z-score (COLO800 (SKIN), 72 hours): −0.5326
DNMDP AUC (CORL51 (LUNG), 72 hours): 0.5944
Robust Z-score (CORL51 (LUNG), 72 hours): −6.34
DNMDP AUC (COV362 (OVARY), 72 hours): 5.6913
Robust Z-score (COV362 (OVARY), 72 hours): −0.9902
DNMDP AUC [3]: 1.7217
Robust Z-score [3]: −5.157
DNMDP AUC (DMS53 (LUNG), 72 hours): 6.2061
Robust Z-score (DMS53 (LUNG), 72 hours): −0.4498
DNMDP AUC [4]: 6.1979
Robust Z-score [4]: −0.4584
DNMDP AUC (DU145 (PROSTATE), 72 hours): 5.7825
Robust Z-score (DU145 (PROSTATE), 72 hours): −0.8945
DNMDP AUC (DV90 (LUNG), 72 hours): 6.1676
Robust Z-score (DV90 (LUNG), 72 hours): −0.4902
DNMDP AUC (ECGI10 (OESOPHAGUS), 72 hours): 6.2151
Robust Z-score (ECGI10 (OESOPHAGUS), 72 hours): −0.4404
DNMDP AUC [5]: 6.1782
Robust Z-score [5]: −0.4791
DNMDP AUC (EPLC272H (LUNG), 72 hours): 6.0469
Robust Z-score (EPLC272H (LUNG), 72 hours): −0.6169
DNMDP AUC (G402 (SOFT TISSUE), 72 hours): 6.0606
Robust Z-score (G402 (SOFT TISSUE), 72 hours): −0.6026
DNMDP AUC [6]: 1.8269
Robust Z-score [6]: −5.046
DNMDP AUC [7]: 6.2076
Robust Z-score [7]: −0.4483
DNMDP AUC [8]: 5.8937
Robust Z-score [8]: −0.7777
DNMDP AUC (GSU (STOMACH), 72 hours): 6.1172
Robust Z-score (GSU (STOMACH), 72 hours): −0.5431
DNMDP AUC (HCC1395 (BREAST), 72 hours): 5.9716
Robust Z-score (HCC1395 (BREAST), 72 hours): −0.696
DNMDP AUC (HCC1419 (BREAST), 72 hours): 5.7835
Robust Z-score (HCC1419 (BREAST), 72 hours): −0.8934
DNMDP AUC (HCC1428 (BREAST), 72 hours): 5.9402
Robust Z-score (HCC1428 (BREAST), 72 hours): −0.7289
DNMDP AUC (HCC1500 (BREAST), 72 hours): 5.9451
Robust Z-score (HCC1500 (BREAST), 72 hours): −0.7238
DNMDP AUC [9]: 0.75
Robust Z-score [9]: −6.177
DNMDP AUC (HS888T (BONE), 72 hours): 5.8353
Robust Z-score (HS888T (BONE), 72 hours): −0.839
DNMDP AUC [10]: 1.5307
Robust Z-score [10]: −5.357
DNMDP AUC (IALM (LUNG), 72 hours): 5.775
Robust Z-score (IALM (LUNG), 72 hours): −0.9023
DNMDP AUC (JHH4 (LIVER), 72 hours): 5.71
Robust Z-score (JHH4 (LIVER), 72 hours): −0.9706
DNMDP AUC [11]: 5.9598
Robust Z-score [11]: −0.7084
DNMDP AUC [12]: 6.1723
Robust Z-score [12]: −0.4853
DNMDP AUC [13]: 6.2008
Robust Z-score [13]: −0.4554
DNMDP AUC [14]: 6.0135
Robust Z-score [14]: −0.652
DNMDP AUC [15]: 6.0542
Robust Z-score [15]: −0.6093
DNMDP AUC [16]: 5.9369
Robust Z-score [16]: −0.7324
DNMDP AUC [17]: 5.8799
Robust Z-score [17]: −0.7922
DNMDP AUC [18]: 6.2174
Robust Z-score [18]: −0.438
DNMDP AUC (KYSE410 (OESOPHAGUS), 72 hours): 6.0741
Robust Z-score (KYSE410 (OESOPHAGUS), 72 hours): −0.5884
DNMDP AUC [19]: 6.0807
Robust Z-score [19]: −0.5815
DNMDP AUC [20]: 6.0853
Robust Z-score [20]: −0.5766
DNMDP AUC [21]: 5.8201
Robust Z-score [21]: −0.855
DNMDP AUC (LMSU (STOMACH), 72 hours): 6.0528
Robust Z-score (LMSU (STOMACH), 72 hours): −0.6107
DNMDP AUC [22]: 5.7557
Robust Z-score [22]: −0.9226
DNMDP AUC (LOUNH91 (LUNG), 72 hours): 5.9793
Robust Z-score (LOUNH91 (LUNG), 72 hours): −0.6879
DNMDP AUC [23]: 6.1029
Robust Z-score [23]: −0.5582
DNMDP AUC (LU99 (LUNG), 72 hours): 5.8016
